According to patent US20240300944A1, “NOVEL UREA DERIVATIVE COMPOUND AS RON INHIBITOR” (LG CHEM, LTD., priority 2021, published 2024):

Columns and labels:
RON = RON (Homo sapiens, UniProt Q04912); assay: Inhibitory activity against RON, TR-FRET kinase assay; type: biochemical; settings: RON enzyme
Method: In order to measure the inhibitory activity of each of the compounds of Examples against RON, the IC50 of each of the compounds was measured using a Time-Resolved Fluorescence Energy Transfer Chemistry (TR-FRET).
(§1) Specifically, the compound was prepared to a concentration of 1 mM with 100% DMSO and was diluted 10 times in a stepwise manner through 3-fold dilution. 2 ul of the compound diluted in a stepwise manner was added to a 96-well-plate containing 48 ul of a 1× kinase reaction buffer (50 mM HEPES (pH 7.4), 0.01% Tween-20, 5 mM DTT, 0.5 mM Na3VO4, 2 mM EGTA, 10 mM MgCl2).
The RON protein was diluted to a concentration of 49.3 nM with an RON storage buffer (50 mM Tris-HCl (pH 7.5), 150 mM NaCl, 0.5 mM EDTA, 0.02% Triton X-100), and then diluted again to a concentration of 0.4 nM with a 1× kinase reaction buffer. As a substrate cocktail, a RON-specific substrate mixture (40 uM ULight-labeled Poly GT, 100 nM ATP) at a concentration 2 times the final reaction concentration.
Thereafter, a 384-well-plate was prepared, and 2.5 ul of each of the diluted compounds of Examples was added to a corresponding well of experimental group wells, and 2.5 ul of a 4% DMSO solution was dispensed into high control wells and low control wells.
(§2) Thereafter, 2.5 μL of 0.4 nM RON was dispensed into the high control wells and the experimental group wells, and 2.5 μL of a 1× kinase reaction buffer was added to the low control wells, and the RON and the reaction buffer were centrifuged at room temperature for 40 seconds at 1000 RPM, and then incubated at room temperature for 20 to 30 minutes. Then, 5 μL of a substrate cocktail (2×) was dispensed into all wells, centrifuged at room temperature for 40 seconds at 1000 RPM, and then incubated at room temperature for 60 minutes. Thereafter, 5 μL of 30 mM EDTA was added to all wells to terminate the reaction, and then incubated again at room temperature for 5 minutes. Thereafter, 5 μL of a 4× phosphotyrosine antibody (Perkin Elmer) containing europium was added to all wells, and then incubated at room temperature for 60 minutes. After the incubation, the 384-well-plate was read with a Vison plate reader. At this time, the excitation wavelength was 340 nm, and the emission wavelength was 620 nm and 665 nm. The IC50 value of the compound of each Example was derived using the GraphPd Prism7 program.

cMET = cMET (Homo sapiens, UniProt P08581); assay: Inhibitory activity against MET (cMET), TR-FRET kinase assay; type: biochemical; settings: cMET enzyme
Method: In addition, in order to measure the enzyme activity inhibition for cMET, the evaluation was performed in the same manner as the enzyme activity inhibition measurement experiment for the RON.
as §1, with “7.4), 0.05% BSA, 0.005%” for “7.4), 0.01%”, “Tween-20, 1” for “Tween-20, 5”, “mM MnCl2, 20” for “mM Na3VO4, 2 mM EGTA, 10”
The cMET protein was diluted to a concentration of 263 nM with a cMET storage buffer (50 mM Tris-HCl (pH 7.5), 150 mM NaCl, 0.05% Brij35, 1 mM DTT, 10% Glycerol), and then diluted again to a concentration of 2 nM with a 1× kinase reaction buffer. As a substrate cocktail, a MET-specific substrate mixture (5 uM TK peptide, […]) at a concentration 2 times the final reaction concentration.
Thereafter, a 384-well-plate was prepared, and 2.5 μl of each of the diluted compounds of Examples was added to a corresponding well of experimental group wells, and 2.5 μl of a 4% DMSO solution was dispensed into high control wells and low control wells.
as §2, with “of 2” for “of 0.4”, “nM cMET” for “nM RON”, “of 90” for “of 30”

Sequence of RON (Q04912 25-1400, species assumed): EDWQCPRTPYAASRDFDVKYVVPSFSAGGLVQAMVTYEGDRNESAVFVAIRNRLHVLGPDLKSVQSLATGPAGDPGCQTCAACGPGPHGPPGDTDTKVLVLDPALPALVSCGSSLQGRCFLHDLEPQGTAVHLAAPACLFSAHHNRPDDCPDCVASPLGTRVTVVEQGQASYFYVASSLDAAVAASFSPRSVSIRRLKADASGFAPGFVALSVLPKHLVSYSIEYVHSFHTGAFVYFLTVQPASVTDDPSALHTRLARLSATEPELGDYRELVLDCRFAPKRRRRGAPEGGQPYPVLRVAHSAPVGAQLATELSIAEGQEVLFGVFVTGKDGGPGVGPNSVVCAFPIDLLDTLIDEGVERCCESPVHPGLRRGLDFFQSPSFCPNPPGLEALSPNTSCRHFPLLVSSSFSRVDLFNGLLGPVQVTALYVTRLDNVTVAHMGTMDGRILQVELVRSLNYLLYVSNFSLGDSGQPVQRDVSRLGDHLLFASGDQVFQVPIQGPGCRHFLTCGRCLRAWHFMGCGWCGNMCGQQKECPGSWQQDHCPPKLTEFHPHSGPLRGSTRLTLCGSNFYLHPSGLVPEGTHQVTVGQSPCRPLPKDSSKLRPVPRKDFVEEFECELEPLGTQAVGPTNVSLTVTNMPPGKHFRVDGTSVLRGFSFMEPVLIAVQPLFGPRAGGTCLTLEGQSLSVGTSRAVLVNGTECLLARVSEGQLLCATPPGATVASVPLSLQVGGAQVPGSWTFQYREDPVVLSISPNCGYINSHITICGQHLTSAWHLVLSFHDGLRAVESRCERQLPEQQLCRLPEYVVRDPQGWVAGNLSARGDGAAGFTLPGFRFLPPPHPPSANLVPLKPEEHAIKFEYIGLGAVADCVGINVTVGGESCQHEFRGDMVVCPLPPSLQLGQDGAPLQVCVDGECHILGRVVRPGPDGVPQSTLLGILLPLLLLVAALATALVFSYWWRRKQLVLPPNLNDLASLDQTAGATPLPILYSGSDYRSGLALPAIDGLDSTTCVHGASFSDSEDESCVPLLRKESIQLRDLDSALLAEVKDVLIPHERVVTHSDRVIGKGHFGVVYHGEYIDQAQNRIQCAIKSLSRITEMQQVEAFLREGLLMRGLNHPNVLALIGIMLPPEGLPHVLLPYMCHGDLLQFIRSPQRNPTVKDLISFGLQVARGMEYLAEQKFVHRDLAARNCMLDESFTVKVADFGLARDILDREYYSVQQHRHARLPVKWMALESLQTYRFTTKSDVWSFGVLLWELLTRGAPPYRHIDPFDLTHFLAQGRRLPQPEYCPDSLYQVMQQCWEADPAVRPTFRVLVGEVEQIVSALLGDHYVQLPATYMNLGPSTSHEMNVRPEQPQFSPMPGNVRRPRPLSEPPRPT
Sequence of cMET (P08581 25-1390): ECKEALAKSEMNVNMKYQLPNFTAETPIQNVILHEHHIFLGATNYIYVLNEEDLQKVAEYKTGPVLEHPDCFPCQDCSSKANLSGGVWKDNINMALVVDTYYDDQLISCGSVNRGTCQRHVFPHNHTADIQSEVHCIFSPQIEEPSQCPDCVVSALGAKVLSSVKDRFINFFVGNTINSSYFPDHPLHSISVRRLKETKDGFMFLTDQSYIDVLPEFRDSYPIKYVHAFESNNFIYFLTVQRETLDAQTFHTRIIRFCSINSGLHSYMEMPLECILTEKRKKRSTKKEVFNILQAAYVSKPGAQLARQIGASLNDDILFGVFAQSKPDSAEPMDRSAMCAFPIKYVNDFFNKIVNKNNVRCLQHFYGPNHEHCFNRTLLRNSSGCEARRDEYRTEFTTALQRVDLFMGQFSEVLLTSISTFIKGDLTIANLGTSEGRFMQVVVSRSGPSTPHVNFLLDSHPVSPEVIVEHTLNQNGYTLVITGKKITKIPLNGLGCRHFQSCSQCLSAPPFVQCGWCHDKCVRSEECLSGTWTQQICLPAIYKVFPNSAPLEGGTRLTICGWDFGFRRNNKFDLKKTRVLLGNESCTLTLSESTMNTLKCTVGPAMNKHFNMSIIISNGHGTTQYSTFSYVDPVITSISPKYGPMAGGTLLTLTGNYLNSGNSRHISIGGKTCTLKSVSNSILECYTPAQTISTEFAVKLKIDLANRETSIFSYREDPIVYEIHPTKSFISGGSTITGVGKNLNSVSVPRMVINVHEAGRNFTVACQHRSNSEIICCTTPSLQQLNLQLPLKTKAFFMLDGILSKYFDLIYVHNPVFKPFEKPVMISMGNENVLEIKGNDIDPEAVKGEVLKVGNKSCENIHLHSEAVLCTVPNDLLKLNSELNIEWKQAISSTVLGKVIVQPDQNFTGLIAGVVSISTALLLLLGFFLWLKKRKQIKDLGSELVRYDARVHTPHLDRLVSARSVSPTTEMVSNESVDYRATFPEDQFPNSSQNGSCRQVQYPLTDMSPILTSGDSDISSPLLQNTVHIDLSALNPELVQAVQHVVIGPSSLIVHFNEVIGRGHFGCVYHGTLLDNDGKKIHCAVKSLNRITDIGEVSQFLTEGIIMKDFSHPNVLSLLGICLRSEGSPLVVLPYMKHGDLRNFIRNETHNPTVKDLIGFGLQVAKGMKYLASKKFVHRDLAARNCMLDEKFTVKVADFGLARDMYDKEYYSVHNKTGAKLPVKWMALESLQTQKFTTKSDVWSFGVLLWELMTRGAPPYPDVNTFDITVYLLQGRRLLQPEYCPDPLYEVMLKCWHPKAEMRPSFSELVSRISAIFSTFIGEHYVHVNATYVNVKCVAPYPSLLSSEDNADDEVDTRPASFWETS

SMILES | IC50 (RON) [µM] | IC50 (cMET) [µM]
CCc1c(C(=O)Nc2ccc(Oc3ccnc4[nH]c(=O)n(C(C)C)c34)c(F)c2)cnn1-c1ccccc1 [Example 10, 5-ethyl-N-(3-fluoro-4-((1-isopropyl-2-oxo-2,3-dihydro-1H-imidazo[4,5-b]pyridine-7-yl)oxy)phenyl)-1-phenyl-1H-pyrazole-4-carboxamide] | < 0.05 | 0.5 to 5
COc1ccccc1-n1ncc(C(=O)Nc2ccc(Oc3ccnc4[nH]c(=O)n(C(C)C)c34)c(F)c2)c1C(F)(F)F [Example 18, N-(3-fluoro-4-((1-isopropyl-2-oxo-2,3-dihydro-1H-imidazo[4,5-b]pyridine-7-yl)oxy)phenyl)-1-(2-methoxyphenyl)-5-(trifluoromethyl)-1H-pyrazole-4-carboxamide] | 0.05 to 0.5 | 0.5 to 5
CC(C)n1c(=O)[nH]c2nccc(Oc3ccc(NC(=O)c4ncc(-c5ccccc5)s4)cc3F)c21 [Example 16, N-(3-fluoro-4-((1-isopropyl-2-oxo-2,3-dihydro-1H-imidazo[4,5-b]pyridine-7-yl)oxy)phenyl)-5-phenylthiazole-2-carboxamide] | 0.05 to 0.5 | > 5
CC(C)n1c(=O)[nH]c2nccc(Oc3ccc(NC(=O)c4cnn(-c5cccc6ccccc56)c4C(F)(F)F)cc3F)c21 [Example 26, N-(3-fluoro-4-((1-isopropyl-2-oxo-2,3-dihydro-1H-imidazo[4,5-b]pyridine-7-yl)oxy)phenyl)-1-(naphthalene-1-yl)-5-(trifluoromethyl)-1H-pyrazole-4-carboxamide] | 0.05 to 0.5 | 0.5 to 5

Further lines, results first:

IC50 (RON) [µM] | IC50 (cMET) [µM] | SMILES
0.5 to 5 | > 5 | CC(C)n1c(=O)[nH]c2nccc(Oc3ccc(NC(=O)c4cccc(Br)c4C(F)(F)F)cc3F)c21 [Example 27, 3-bromo-N-(3-fluoro-4-((1-isopropyl-2-oxo-2,3-dihydro-1H-imidazo[4,5-b]pyridine-7-yl)oxy)phenyl)-2-(trifluoromethyl)benzamide]
< 0.05 | 0.5 to 5 | O=C(Nc1ccc(Oc2ccnc3[nH]c(=O)n(C4CCOC4)c23)c(F)c1)c1cnn(-c2ccccc2)c1C(F)(F)F (centres unmarked) [Example 38, N-(3-fluoro-4-((2-oxo-1-(tetrahydrofuran-3-yl)-2,3-dihydro-1H-imidazo[4,5-b]pyridine-7-yl)oxy)phenyl)-1-phenyl-5-(trifluoromethyl)-1H-pyrazole-4-carboxamide]
0.05 to 0.5 | 0.5 to 5 | CC(C)n1c(=O)[nH]c2nccc(Oc3ccc(NC(=O)Cc4cnn(-c5ccccc5)c4C(F)(F)F)cc3F)c21 [Example 32, N-(3-fluoro-4-((1-isopropyl-2-oxo-2,3-dihydro-1H-imidazo[4,5-b]pyridine-7-yl)oxy)phenyl)-2-(1-phenyl-5-(trifluoromethyl)-1H-pyrazol-4-yl)acetamide]
